Assay results published in patent publication US12589143B2, “Human anti-PD-L1 peptide vaccines and methods of their use” (priority 2019, dated 2026).
Several values for one entry are separate records, joined by “and”; a condition that tells them apart may be missing. Identical values can stand only once. Where no end group is shown, it is not given here.

Test system: MVF-PD-L1 peptide immunogen
Assay: Immunogenicity in Balb/c mice, experiment 1 (CT26 WT): ELISA of sera vs each MVF-PD-L1 peptide immunogen
Type: in vivo
Conditions: for Immunogenicity (titers) 1′ Conc. 1:: Balb/c mice
Experimental: Immunogenicity of MVF-PD-L1 B-cell epitopes. New Zealand White rabbits were immunized with 1 mg of each MVF-peptide immunogens dissolved in dd H2O emulsified (1:1) in Montanide ISA 720 vehicle (Seppic) with 333 μg of N-acetylglucosamine-3yl-acetyl-1-alanyl-d-isoglutamine (nor-MDP). Rabbits were boosted with the same doses at 3-week's intervals. Blood was collected via the central auricular artery in rabbits. Blood was collected weekly (1Y+3, 2Y+1, 2Y+2,2Y+3, 3Y+1, 3Y+2 and sera tested for antibody titers by ELISA using the immunogens MVF-PD-L1 peptides. Sera (terminal) from rabbit (3Y+3) immunized with MVF-PD-1 peptide immunogens were tested individually versus the immunogen by ELISA. 200 ng/well peptide were used in duplicates to coat the ELISA plates. Titers are defined as the highest dilution of sera with an absorbance value of 0.2 after subtracting the blank.
FIGS. 5A, 5B, 5C, and 5D show the experimental scheme to test the immunization with PD-L1 in Balb/c mice. […] Balb/c mice 6-8 weeks old, were immunized with MVF-peptide immunogens emulsified in ISA 720 with nor-MDP three times and three weeks apart. Mice were immunized with MVF-PD-L1 vaccine constructs [PD-L1(36-53), PD-L1(50-67), PD-L1(95-112), PD-L1(130-147)] prior to tumor challenge. Blood was collected weekly and sera tested for antibody titers by ELISA. Two weeks after the third immunization (3Y), the mice were engrafted with CT26 WT tumor cells 10^5 per mouse Control mice were treated twice weekly with PBS as negative control and twice weekly with anti-mPD-L1 mAb (10F.9G2) as positive control starting 2 days after tumor challenge. Tumor growths were observed twice weekly and measured by calipers.
Immunogenicity of MVF-PD-L1 peptides in BALB/c mice immunized with various peptide constructs. Sera collected weekly were tittered against each individual MVF-PD-L1 peptide immunogen. The Pink bar refers to titers versus PD-L1 130 and the red bar refers to titers versus PD-1 (92-110).
In order to verify the efficacy of the PD-L1 epitope vaccines in vivo in the CT26 carcinoma cell line, Balb/c mice (10 mice/group) were immunized with 100 μg each of MVF-PD-L1 (36-53), MVF-PD-L1 (50-67), MVF-PD-L1 (95-112) and MVF-PD-L1 (130-147) emulsified with nor-MDP and Montanide 720 (1:1 ratio) SCHEME 1A (FIG. 5A). As detailed in SCHEME 1A-D (FIGS. 5A, 5B, 5C, and 5D), mice were immunized 3 times at 3 weeks intervals. […] All PD-L1 epitopes elicited high titers of PD-L1 anti-peptide antibodies by ELISA. […] We also investigated the combination of PD-1(92-110) with PD-L1-130-147.
For each peptide, vaccine antibodies were raised in New Zealand white rabbits, purchased from Charles River Laboratories (Wilmington, MA, USA). Rabbits were immunized with 1 mg of MVF chimeric peptide emulsified in Montanide ISA 720 (Seppic, Paris, France) and boosted 3 times at three week intervals. For mouse experiments, mice, 6-8 weeks old, were immunized with 0.1 mg of peptide emulsified in ISA720 (1:1 ratio). Mice were boosted with the respective doses at 3-week intervals. Blood was then collected and sera were tested for antibody titers. Sera were collected weekly and peptide vaccine antibodies were purified by affinity chromatography using a protein A/G column and the concentration was measured using Spectrophometer. All experiments were performed in accordance with the U.S. Public Health Service Policy on Humane Care and Use of Laboratory animals and approved by the Ohio State University Institutional Animals Care and Use Committee, detailed in the accepted protocol.
6-8 weeks old BALB/c mice (Charles River, Wilmington, MA) were used as standard animal models. Mouse CT26 colon carcinoma cell line was purchased from American Type Culture Collection Cells and were regularly cultured in RPMI1640 medium containing 10% FBS. CT26/HER2 cells were kindly provided by M. Penichet. Vaccines were dissolved in sterile water and emulsified in Montanide ISA 720 (1:1). […]

KLLSLIKGVIVHRLEGVEGPSLVTSEHELTCQAEGYPKAE (KLLSLIKGVIVHRLEGVEGPSLVTSEHELTCQAEGYPKAE-NH2) [PD-L1(130)]
Immunogenicity (titers) 1′ Conc. 1: (bleed 1Y + 3): 12800
Immunogenicity (titers) 1′ Conc. 1: (bleed 2Y + 1): 12800
Immunogenicity (titers) 1′ Conc. 1: (bleed 2Y + 2): >12800
Immunogenicity (titers) 1′ Conc. 1: (bleed 2Y + 3): 128000
Immunogenicity (titers) 1′ Conc. 1: (bleed 3Y + 1): 128000
Immunogenicity (titers) 1′ Conc. 1: (bleed 3Y + 2): 64000
Immunogenicity (titers) 1′ Conc. 1: (bleed 3Y + 3): 64000
ELISA absorbance of sera (bleed 1Y + 3 (1to100), dilution 100, primary antibody dilution 1:100): 1.571 and 1.562
ELISA absorbance of sera (bleed 1Y + 3 (1to100), dilution 200, primary antibody dilution 1:200): 1.513 and 1.428
ELISA absorbance of sera (bleed 1Y + 3 (1to100), dilution 400, primary antibody dilution 1:400): 1.359 and 1.348
ELISA absorbance of sera (bleed 1Y + 3 (1to100), dilution 800, primary antibody dilution 1:800): 1.151 and 1.105
ELISA absorbance of sera (bleed 1Y + 3 (1to100), dilution 1,600): 0.888 and 0.871
ELISA absorbance of sera (bleed 1Y + 3 (1to100), dilution 3,200): 0.580 and 0.528
ELISA absorbance of sera (bleed 1Y + 3 (1to100), dilution 6,400): 0.348 and 0.314
ELISA absorbance of sera (bleed 1Y + 3 (1to100), dilution 12,800): 0.204 and 0.196
ELISA absorbance of sera (bleed 2Y + 1 (1to100), dilution 100, primary antibody dilution 1:100): 1.492 and 1.522
ELISA absorbance of sera (bleed 2Y + 1 (1to100), dilution 200, primary antibody dilution 1:200): 1.511 and 1.473
ELISA absorbance of sera (bleed 2Y + 1 (1to100), dilution 400, primary antibody dilution 1:400): 1.450 and 1.355
ELISA absorbance of sera (bleed 2Y + 1 (1to100), dilution 800, primary antibody dilution 1:800): 1.299 and 1.243
ELISA absorbance of sera (bleed 2Y + 1 (1to100), dilution 1,600): 1.049 and 0.898
ELISA absorbance of sera (bleed 2Y + 1 (1to100), dilution 3,200): 0.757 and 0.652
ELISA absorbance of sera (bleed 2Y + 1 (1to100), dilution 6,400): 0.461 and 0.403
ELISA absorbance of sera (bleed 2Y + 1 (1to100), dilution 12,800): 0.286 and 0.239
ELISA absorbance of sera (bleed 2Y + 2 (1to100), dilution 100): 1.483 and 1.544
ELISA absorbance of sera (bleed 2Y + 2 (1to100), dilution 200): 1.510 and 1.484
ELISA absorbance of sera (bleed 2Y + 2 (1to100), dilution 400): 1.508 and 1.469
ELISA absorbance of sera (bleed 2Y + 2 (1to100), dilution 800): 1.407 and 1.322
ELISA absorbance of sera (bleed 2Y + 2 (1to100), dilution 1,600): 1.252 and 1.192
ELISA absorbance of sera (bleed 2Y + 2 (1to100), dilution 3,200): 0.977 and 0.852
ELISA absorbance of sera (bleed 2Y + 2 (1to100), dilution 6,400): 0.704 and 0.577
ELISA absorbance of sera (bleed 2Y + 3 (1to1k), dilution 100): 1.227 and 1.226
ELISA absorbance of sera (bleed 2Y + 3 (1to1k), dilution 200): 1.175 and 1.183
ELISA absorbance of sera (bleed 2Y + 3 (1to1k), dilution 400): 1.164 and 1.091
ELISA absorbance of sera (bleed 2Y + 3 (1to1k), dilution 800): 1.040 and 0.957
ELISA absorbance of sera (bleed 2Y + 3 (1to1k), dilution 1,600): 0.846 and 0.797
ELISA absorbance of sera (bleed 2Y + 3 (1to1k), dilution 3,200): 0.665 and 0.655
ELISA absorbance of sera (bleed 2Y + 3 (1to1k), dilution 6,400): 0.432 and 0.397
ELISA absorbance of sera (bleed 3Y + 1 (1to1k), dilution 100): 1.387 and 1.385
ELISA absorbance of sera (bleed 3Y + 1 (1to1k), dilution 200): 1.327 and 1.336
ELISA absorbance of sera (bleed 3Y + 1 (1to1k), dilution 400): 1.315 and 1.233
ELISA absorbance of sera (bleed 3Y + 1 (1to1k), dilution 800): 1.176 and 1.081
ELISA absorbance of sera (bleed 3Y + 1 (1to1k), dilution 1,600): 0.955 and 0.901
ELISA absorbance of sera (bleed 3Y + 1 (1to1k), dilution 3,200): 0.752 and 0.740
ELISA absorbance of sera (bleed 3Y + 1 (1to1k), dilution 6,400): 0.488 and 0.449
ELISA absorbance of sera (bleed 3Y + 2 (1to1k), dilution 100): 1.562 and 1.601
ELISA absorbance of sera (bleed 3Y + 2 (1to1k), dilution 200): 1.394 and 1.374
ELISA absorbance of sera (bleed 3Y + 2 (1to1k), dilution 400): 1.156 and 1.199
ELISA absorbance of sera (bleed 3Y + 2 (1to1k), dilution 800): 0.867 and 0.876
ELISA absorbance of sera (bleed 3Y + 2 (1to1k), dilution 1,600): 0.656 and 0.658
ELISA absorbance of sera (bleed 3Y + 2 (1to1k), dilution 3,200): 0.439 and 0.431
ELISA absorbance of sera (bleed 3Y + 2 (1to1k), dilution 6,400): 0.286
ELISA absorbance of sera (bleed 3Y + 3 (1to1k), dilution 100): 1.823 and 1.827
ELISA absorbance of sera (bleed 3Y + 3 (1to1k), dilution 200): 1.614 and 1.704
ELISA absorbance of sera (bleed 3Y + 3 (1to1k), dilution 400): 1.411 and 1.516
ELISA absorbance of sera (bleed 3Y + 3 (1to1k), dilution 800): 1.110 and 1.208
ELISA absorbance of sera (bleed 3Y + 3 (1to1k), dilution 1,600): 0.752 and 0.880
ELISA absorbance of sera (bleed 3Y + 3 (1to1k), dilution 3,200): 0.445 and 0.537
ELISA absorbance of sera (bleed 3Y + 3 (1to1k), dilution 6,400): 0.243
